The values below come from ChEMBL document CHEMBL1145029, “Design, synthesis, and evaluation of benzothiadiazepine hydroxamates as selective tumor necrosis factor-alpha converting enzyme inhibitors” (J Med Chem, 2003).

In experiment [1] the target is T1, Disintegrin and metalloproteinase domain-containing protein 17 (Homo sapiens, UniProt P78536). Nature of the experiment: Ability to suppress the formation of TNF-aplha in human peripheral blood mononuclear cell assay(PBMC). Format: functional.
Experiment [2] addresses 72 kDa type IV collagenase (Homo sapiens, UniProt P08253).
Description: In vitro inhibitory activity against broad spectrum matrix metalloprotease-2 (MMP-2)
Experiment [3] has as its target T1, Disintegrin and metalloproteinase domain-containing protein 17. Nature of the experiment: Ability to suppress the formation of TNF-aplha in human whole blood assay (WBA). Format: functional, tissue-based.
The target in experiment [4] is T2, Interstitial collagenase (Homo sapiens, UniProt P03956).
T2 sequence (P03956 whole entry): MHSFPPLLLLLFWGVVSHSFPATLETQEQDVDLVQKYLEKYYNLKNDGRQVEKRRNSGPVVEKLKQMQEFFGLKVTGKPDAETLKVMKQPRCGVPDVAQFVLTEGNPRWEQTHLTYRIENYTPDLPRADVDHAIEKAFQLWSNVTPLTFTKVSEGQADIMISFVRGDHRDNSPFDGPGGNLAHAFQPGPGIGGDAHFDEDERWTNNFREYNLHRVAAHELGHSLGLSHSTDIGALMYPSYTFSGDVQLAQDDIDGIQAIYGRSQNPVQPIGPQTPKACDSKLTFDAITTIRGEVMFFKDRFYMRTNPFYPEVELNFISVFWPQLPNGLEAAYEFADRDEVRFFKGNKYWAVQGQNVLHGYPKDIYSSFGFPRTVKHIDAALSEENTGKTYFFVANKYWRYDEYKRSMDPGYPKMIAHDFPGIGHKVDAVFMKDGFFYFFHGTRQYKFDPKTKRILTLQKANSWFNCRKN
Nature of the experiment: In vitro inhibitory activity against broad spectrum matrix metalloprotease-1 (MMP-1).

Experiment [5] deals with Matrix metalloproteinase-9 (Homo sapiens, UniProt P14780). Nature of the experiment: In vitro inhibitory activity against broad spectrum matrix metalloprotease-9 (MMP-9).
Matrix metalloproteinase-9, sequence (P14780 whole entry): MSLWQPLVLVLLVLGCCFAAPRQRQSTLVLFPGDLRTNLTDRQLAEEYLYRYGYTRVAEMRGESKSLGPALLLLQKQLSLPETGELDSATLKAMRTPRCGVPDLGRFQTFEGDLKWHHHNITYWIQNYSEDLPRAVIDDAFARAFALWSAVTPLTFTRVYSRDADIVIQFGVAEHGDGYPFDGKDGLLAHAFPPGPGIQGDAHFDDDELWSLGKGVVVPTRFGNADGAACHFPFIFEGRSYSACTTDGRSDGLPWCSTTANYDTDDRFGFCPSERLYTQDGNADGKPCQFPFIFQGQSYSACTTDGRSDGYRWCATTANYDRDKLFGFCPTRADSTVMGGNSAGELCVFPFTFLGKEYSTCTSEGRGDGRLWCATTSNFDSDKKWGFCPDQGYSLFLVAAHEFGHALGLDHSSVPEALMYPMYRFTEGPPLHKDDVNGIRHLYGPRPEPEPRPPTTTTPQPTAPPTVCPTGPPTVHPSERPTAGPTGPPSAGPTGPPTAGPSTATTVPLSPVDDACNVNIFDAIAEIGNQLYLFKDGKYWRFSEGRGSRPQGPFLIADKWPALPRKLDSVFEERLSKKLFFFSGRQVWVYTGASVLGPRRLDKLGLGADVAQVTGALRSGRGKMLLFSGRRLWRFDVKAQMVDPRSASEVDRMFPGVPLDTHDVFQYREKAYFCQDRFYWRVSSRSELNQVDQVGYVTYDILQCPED

Each structure is given as a SMILES string.

Broadly, the IC50 is the midpoint of a concentration-inhibition curve. A higher IC50 goes with lower potency. One may read the Ki as the dissociation constant of the complex between target and ligand, obtained from inhibition or displacement. Read a high Ki as lower affinity.

T1 sequence (P78536 whole entry, the tested form may be a part): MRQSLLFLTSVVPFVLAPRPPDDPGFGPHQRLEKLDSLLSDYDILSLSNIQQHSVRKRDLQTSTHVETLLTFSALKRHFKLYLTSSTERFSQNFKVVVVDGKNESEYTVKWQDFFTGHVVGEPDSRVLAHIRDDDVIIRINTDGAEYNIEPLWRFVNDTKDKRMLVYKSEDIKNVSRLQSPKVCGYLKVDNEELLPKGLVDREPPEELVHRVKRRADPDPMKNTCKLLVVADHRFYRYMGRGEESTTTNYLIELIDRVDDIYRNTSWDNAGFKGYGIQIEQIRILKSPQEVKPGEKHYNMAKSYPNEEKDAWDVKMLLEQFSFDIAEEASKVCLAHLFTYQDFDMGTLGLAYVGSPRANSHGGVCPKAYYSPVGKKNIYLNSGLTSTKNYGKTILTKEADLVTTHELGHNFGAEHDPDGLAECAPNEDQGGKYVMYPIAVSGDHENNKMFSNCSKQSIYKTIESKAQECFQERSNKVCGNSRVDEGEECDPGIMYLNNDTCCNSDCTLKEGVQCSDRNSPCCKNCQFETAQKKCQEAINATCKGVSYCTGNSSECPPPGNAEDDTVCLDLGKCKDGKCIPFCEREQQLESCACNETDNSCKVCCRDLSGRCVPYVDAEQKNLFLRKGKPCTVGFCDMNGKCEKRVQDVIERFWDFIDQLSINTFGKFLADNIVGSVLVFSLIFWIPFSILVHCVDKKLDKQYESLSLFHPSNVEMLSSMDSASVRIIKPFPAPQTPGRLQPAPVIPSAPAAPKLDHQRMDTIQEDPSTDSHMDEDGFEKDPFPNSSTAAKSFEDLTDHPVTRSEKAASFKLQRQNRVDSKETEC
72 kDa type IV collagenase, sequence (P08253 whole entry, the tested form may be a part): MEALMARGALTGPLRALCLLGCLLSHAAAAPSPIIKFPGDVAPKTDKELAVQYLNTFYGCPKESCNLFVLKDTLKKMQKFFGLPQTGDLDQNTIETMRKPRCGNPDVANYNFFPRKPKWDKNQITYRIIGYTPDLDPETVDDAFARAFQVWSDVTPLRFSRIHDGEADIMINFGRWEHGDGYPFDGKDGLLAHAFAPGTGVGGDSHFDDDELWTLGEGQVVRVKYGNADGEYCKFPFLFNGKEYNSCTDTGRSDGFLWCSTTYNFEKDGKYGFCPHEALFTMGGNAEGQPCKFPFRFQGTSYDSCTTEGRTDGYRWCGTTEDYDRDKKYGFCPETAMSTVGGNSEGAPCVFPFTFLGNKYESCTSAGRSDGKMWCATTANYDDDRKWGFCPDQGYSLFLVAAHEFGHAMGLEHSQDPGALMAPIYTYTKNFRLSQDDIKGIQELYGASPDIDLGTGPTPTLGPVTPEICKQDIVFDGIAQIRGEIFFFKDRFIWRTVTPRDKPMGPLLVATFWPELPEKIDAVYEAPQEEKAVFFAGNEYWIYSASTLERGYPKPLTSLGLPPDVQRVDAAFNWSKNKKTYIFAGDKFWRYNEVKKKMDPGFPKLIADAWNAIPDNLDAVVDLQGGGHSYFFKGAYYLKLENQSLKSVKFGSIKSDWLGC

`C[C@H](C(=O)NO)N1CCNc2cc(Oc3cccc([N+](=O)[O-])c3)ccc2S1(=O)=O`: the values for the IC50 in experiment [1] and in experiment [3] were 470 nM and 1400 nM, respectively. Besides, the figures for the Ki in experiment [2], in experiment [4] and in experiment [5] were 85 nM, greater than 4950 nM and 96 nM, respectively.
On to `Cc1cc(C)cc(C(=O)Nc2ccc3c(c2)NCCN([C@H](C)C(=O)NO)S3(=O)=O)c1`, for which the Ki in experiment [2] was 94 nM; in experiment [4] it was greater than 4950 nM; in experiment [5], 993 nM.
On to `COc1ccc(Oc2ccc3c(c2)NCCN([C@H](C)C(=O)NO)S3(=O)=O)cc1`, for which the Ki in experiment [2] was less than 2.8 nM; in experiment [4], greater than 4950 nM; in experiment [5], less than 2.1 nM.
With `COc1cc(COc2ccc3c(c2)NCCN([C@H](C)C(=O)NO)S3(=O)=O)cc(OC)c1`, the IC50 in experiment [1] turned out to be 770 nM; in experiment [3], 28000 nM. For the same compound, the Ki in experiment [2] is 491 nM; in experiment [4] it was greater than 4950 nM; in experiment [5] it was greater than 2130 nM.
On to `O=C(CN1CCNc2ccccc2S1(=O)=O)NO`, for which the Ki in experiment [2] is 1920 nM; in experiment [4], greater than 4950 nM; in experiment [5], greater than 2130 nM.
Taken in the same sequence, the figures for `Cc1cc(C)cc(COc2ccc3c(c2)NCCN([C@H](C)C(=O)NO)S3(=O)=O)c1` were 136 nM, greater than 4950 nM and greater than 2130 nM.
For the compound `COc1cc(COc2ccc3c(c2)NCCN([C@H](CCCCN)C(=O)NO)S3(=O)=O)cc(OC)c1`, the Ki in experiment [2] is 231 nM; in experiment [4], greater than 4950 nM; in experiment [5] it was greater than 2130 nM.
Take `CCOc1cc(COc2ccc3c(c2)NCCN([C@H](CCCC(=O)OC)C(=O)NO)S3(=O)=O)cc(OCC)c1`: the figures for the IC50 in experiment [1] and in experiment [3] were 1100 nM and 24000 nM, respectively. For the same compound, the results for the inhibition constant Ki in experiment [2], in experiment [4] and in experiment [5] were 1380 nM, greater than 4950 nM and greater than 2130 nM, respectively.
On to `COc1ccc2c(c1)NCCN(CC(=O)NO)S2(=O)=O`, for which the Ki was 1500 nM in experiment [2], greater than 4950 nM in experiment [4] and greater than 2130 nM in experiment [5].
Consider `C[C@H](C(=O)NO)N1CCNc2cc(Oc3ccc(C(F)(F)F)cc3)ccc2S1(=O)=O`, for which, in experiment [1], the IC50 came to 840 nM. For the same compound, the inhibition constant Ki in experiment [2] was less than 2.8 nM; in experiment [4], greater than 4950 nM; in experiment [5] it was 7 nM.
Take `CCOc1cc(COc2ccc3c(c2)NCCN([C@H](C)C(=O)NO)S3(=O)=O)cc(OCC)c1`: the IC50 in experiment [1] came out at 4500 nM. Also, the inhibition constant Ki in experiment [2] was 690 nM; in experiment [4], greater than 4950 nM; in experiment [5] it was greater than 2130 nM.
For `CC(C)C[C@H](C(=O)NO)N1CCNc2cc(O)ccc2S1(=O)=O`, in that order: 9500 nM, 11 nM, 479 nM and 80 nM.
For `CCOc1cc(COc2ccc3c(c2)NCCN([C@H](CCC(=O)OC)C(=O)NO)S3(=O)=O)cc(OCC)c1`, the IC50 in experiment [1] stood at 6200 nM. The Ki was 960 nM in experiment [2], greater than 4950 nM in experiment [4] and greater than 2130 nM in experiment [5].
As to `C[C@H](C(=O)NO)N1CCNc2cc(OCc3ccccc3)ccc2S1(=O)=O`, the Ki is less than 2.8 nM in experiment [2], greater than 4950 nM in experiment [4] and 3.6 nM in experiment [5].
Turning to `Cc1nc(COc2ccc3c(c2)NCCN([C@@H](C(=O)NO)C(C)C)S3(=O)=O)sc1C`, in experiment [1], the IC50 was 24500 nM. Also, the Ki in experiment [2] is 361 nM; in experiment [4], greater than 4950 nM; in experiment [5], greater than 2130 nM.
Take `COc1cc(COc2ccc3c(c2)NCCN([C@H](CCCCNS(C)(=O)=O)C(=O)NO)S3(=O)=O)cc(OC)c1`: the IC50 in experiment [1] came out at 1900 nM; in experiment [3], 38000 nM. Besides, the results for the Ki in experiment [2], in experiment [4] and in experiment [5] were 391 nM, greater than 4950 nM and greater than 2130 nM, respectively.
On to `C[C@H](C(=O)NO)N1CCNc2ccccc2S1(=O)=O`, for which the Ki in experiment [2] was 75 nM; in experiment [4] it was greater than 4950 nM; in experiment [5], 567 nM.
Turning to `Cc1cc(COc2ccc3c(c2)NCCN([C@H](C)C(=O)NO)S3(=O)=O)cc(C)n1`, the IC50 in experiment [1] stood at 2900 nM. The Ki was 75 nM in experiment [2], greater than 4950 nM in experiment [4] and 1840 nM in experiment [5].
Take `C[C@H](C(=O)NO)N1CCNc2cc(Oc3ccc(-c4ccccc4)cc3)ccc2S1(=O)=O`: the Ki in experiment [2] is less than 2.8 nM; in experiment [4], 2020 nM; in experiment [5], less than 2.1 nM.
Take `COc1ccc2c(c1)NCCN([C@@H](C(=O)NO)C(C)C)S2(=O)=O`: the inhibition constant (Ki) is 52 nM in experiment [2], 732 nM in experiment [4] and 751 nM in experiment [5].
In turn, `COc1cc(COc2ccc3c(c2)NCCN([C@H](CC(C)C)C(=O)NO)S3(=O)=O)cc(OC)c1` yielded an IC50 in experiment [1] of 5400 nM. For the same compound, the Ki in experiment [2] was 154 nM; in experiment [4] it was greater than 4950 nM; in experiment [5], greater than 2130 nM.
As for `C[C@H](C(=O)NO)N1CCNc2cc(O)ccc2S1(=O)=O`, the Ki was less than 2.8 nM in experiment [2], 980 nM in experiment [4] and 100 nM in experiment [5].
Turning to `COc1cc(COc2ccc3c(c2)NCCN([C@@H](C(=O)NO)C(C)C)S3(=O)=O)cc(OC)c1`, the IC50 in experiment [1] came to 4000 nM. For the same compound, the Ki in experiment [2] is 647 nM; in experiment [4], greater than 4950 nM; in experiment [5], 981 nM.
In experiment [1], `CC(C)C[C@H](C(=O)NO)N1CCNc2cc(OCc3ccccc3)ccc2S1(=O)=O` came in with an IC50 of 350 nM. Moreover, the values for the Ki in experiment [2], in experiment [4] and in experiment [5] were less than 2.8 nM, 548 nM and less than 2.1 nM, respectively.
Consider `COc1ccc2c(c1)NCN([C@H](C)C(=O)NO)S2(=O)=O`, for which the results for the Ki in experiment [2], in experiment [4] and in experiment [5] were 312 nM, greater than 4950 nM and 1050 nM, respectively.
Taken in the same sequence, the figures for `C[C@H](C(=O)NO)N1CCNc2cc(-c3ccccc3)ccc2S1(=O)=O` were less than 2.8 nM, 272 nM and 8 nM.
In turn, `COC(=O)CCC[C@H](C(=O)NO)N1CCNc2cc(OCc3cc(OC)cc(OC)c3)ccc2S1(=O)=O` returned an IC50 in experiment [1] of 900 nM. Further, the results for the Ki in experiment [2], in experiment [4] and in experiment [5] were 332 nM, greater than 4950 nM and greater than 2130 nM, respectively.
In the case of `C[C@H](C(=O)NO)N1CCNc2cc(Oc3ccc([N+](=O)[O-])cc3)ccc2S1(=O)=O`, the IC50 was found to be 1200 nM in experiment [1] and 15000 nM in experiment [3]. The Ki was 8 nM in experiment [2], greater than 4950 nM in experiment [4] and 19 nM in experiment [5].
On to `C[C@H](C(=O)NO)N1CCNc2cc(Oc3ccccc3)ccc2S1(=O)=O`, for which the Ki in experiment [2] was 23 nM; in experiment [4], greater than 4950 nM; in experiment [5], 3 nM.
Consider `COC(=O)CC[C@H](C(=O)NO)N1CCNc2cc(OCc3cc(OC)cc(OC)c3)ccc2S1(=O)=O`, for which the IC50 in experiment [1] stood at 7200 nM. Moreover, the results for the inhibition constant Ki in experiment [2], in experiment [4] and in experiment [5] were 1590 nM, greater than 4950 nM and greater than 2130 nM, respectively.
Taken in the same sequence, the figures for `C[C@H](C(=O)NO)N1CCNc2cc(OCc3cc(Cl)cc(Cl)c3)ccc2S1(=O)=O` were 940 nM, 49 nM, greater than 4950 nM and 1210 nM.
For `COc1cc(COc2ccc3c(c2)NCCN([C@H](CCCCNC(=O)OC(C)(C)C)C(=O)NO)S3(=O)=O)cc(OC)c1`, the Ki is 32 nM in experiment [2], greater than 4950 nM in experiment [4] and 118 nM in experiment [5].
For the compound `COc1ccc2c(c1)NCCN([C@H](C)C(=O)NO)S2(=O)=O`, the Ki in experiment [4] amounted to 1060 nM; in experiment [5], 104 nM.
As for `COc1cc(CNc2ccc3c(c2)NCCN([C@H](CC(C)C)C(=O)NO)S3(=O)=O)cc(OC)c1`, the Ki was 75 nM in experiment [2], greater than 4950 nM in experiment [4] and 347 nM in experiment [5].
For `C[C@H](C(=O)NO)N1CCNc2cc(-c3ccccc3C(F)(F)F)ccc2S1(=O)=O`, in that order: 2520 nM, greater than 4950 nM and greater than 2130 nM.
Regarding `CCOc1cc(COc2ccc3c(c2)NCCN([C@@H](C(=O)NO)C(C)C)S3(=O)=O)cc(OCC)c1`, the 50% inhibitory concentration (IC50) in experiment [1] stood at 8200 nM. Also, the Ki was 3000 nM in experiment [2], greater than 4950 nM in experiment [4] and greater than 2130 nM in experiment [5].
